Source: patent US9872494B2, “Active ingredient combinations comprising pyridylethylbenzamides and other active ingredients” (priority 2010, dated 2018)

Key:
Assay type in all cases: in vivo
[1] = test system: green peach aphid (Myzus persicae); experiment: Myzus test (spray treatment), Chinese cabbage leaf disks; conditions: for Mortality in % after 1d: spray
Text: (§1) If the actual insecticide mortality is greater than calculated, then the combination is superadditive in its kill—that is, there is a synergistic effect. In this case the mortality actually observed must be greater than the value for the expected mortality (E) calculated on the basis of the formula given above.
Myzus Test (Spray Treatment)
Solvent: 78 parts by weight of acetone
• 1.5 parts by weight of dimethylformamide Emulsifier: 0.5 part by weight of alkylaryl polyglycol ether
A suitable preparation of active ingredient is prepared by mixing one part by weight of active ingredient with the stated amounts of solvent and emulsifier and diluting the concentrate with emulsifier-containing water to the desired concentration. A suitable suspension of biological agent is prepared by dissolving the cells, spores or viruses in emulsifier-containing water in the desired concentration.
Chinese cabbage (Brassica pekinensis) leaf disks infested by all stages of the green peach aphid (Myzus persicae) are sprayed with an active ingredient and/or biological agent preparation in the desired concentration.
After the desired time, the effect in % is ascertained. Here, 100% means that all of the aphids have been killed; 0% means that no aphids have been killed. The mortality figures determined are used for calculation according to the Colby formula (see sheet 1).

[2] = test system: soya beans (Glycine max); experiment: Glycine max - growth promotion in combination with Mycorrhiza; conditions: 44 days greenhouse, fresh roots
Experimental: Glycine max—Growth Promotion in Combination with Mycorrhiza
Seed of soya beans (Glycine max) is mixed with the desired amount of active ingredient in water. After drying, the seeds are sown in pots filled with sand and perlite (1:1). For inoculation with arbuscular mycorrhiza fungi, the sand-perlite mixture is mixed beforehand with the Mycorrhiza inoculum (AMykor GmbH; Germany) in a concentration of 25 ml/L. The seed is covered with 3 cm of Lecaton (expanded clay).
Over the following 44 days, the plants are cultivated in a greenhouse in good growth conditions. The pots are watered with a nutrient solution (Hoagland and Amon, 1950, half-concentrated solution) with a low phosphate concentration (20 μM).
The untreated control plants are cultured without arbuscular mycorrhiza fungi, but under the same conditions.
The growth-promoting effect on shoot and roots is ascertained via the weight of the fresh roots of the treated plant in comparison to the untreated control.

[3] = test system: cotton (Gossypium hirsutum); experiment: Seed treatment - cotton emergence test; conditions: after 2 days
Text: Seed Treatment—Cotton Emergence Test
Seed of cotton (Gossypium hirsutum) is mixed with the desired amount of active ingredient and spores and also water. After drying, 25 seed grains in each case are sown in pots filled with sandy loam.
After 2 days, the effect in % is ascertained on the basis of the cotton plants that have emerged.

[4] = test system: army worm (Spodoptera frugiperda); experiment: Spodoptera frugiperda test (spray treatment), maize leaf disks; conditions: foliar, 48 h, read-out: Mortality in % after 2d
Text: (§2) The anticipated effect of a given combination of two active ingredients may be calculated (cf. Colby, S. R., “Calculating Synergistic and Antagonistic Responses of Herbicide Combinations”, Weeds 15, pages 20-22, 1967) as follows: • if • X is the mortality, expressed in % of the untreated control, when active ingredient A is used in an application rate of m ppm, or m g/ha • Y is the mortality, expressed in % of the untreated control, when active ingredient B is used in an application rate of n ppm, or n g/ha • E is the mortality, expressed in % of the untreated control, when active ingredients A and B are used at application rates of m and n ppm or of m and n g/ha, • then
as §1
Spodoptera frugiperda Test (Spray Treatment)
Solvent: 78.0 parts by weight of acetone
• 1.5 parts by weight of dimethylformamide Emulsifier: 0.5 part by weight of alkylaryl polyglycol ether […]
After the desired time, the effect in % is ascertained. […] The mortality figures determined are used for calculation according to the Colby formula (see sheet 1).

[5] = test system: Meloidogyne incognita; experiment: Meloidogyne incognita test (gall formation on lettuce roots)
Text: as §2, §1
Meloidogyne incognita Test
Solvent: 125.0 parts by weight of acetone
A suitable preparation of active ingredient is prepared by mixing one part by weight of active ingredient with the stated amounts of solvent and diluting the concentrate with water to the desired concentration. […]
After the desired time, the nematicidal effect is determined on the basis of gall formation in %. […]

[6] = 1000 g ai/ha, 100% = all aphids killed
[7] = Myzus persicae, foliar, 24 h, read-out: Mortality in % after 1d

## Bacillus thuringiensis subsp. tenebrionis
[1]; [6]
  Mortality in % after 1d: 0%

## arbuscular mycorrhiza fungus
[2]; Mycorrhiza inoculum 25 ml/L in sand-perlite
  Root weight in % in comparison to untreated control: 133.21%

## O=S(=O)(CCC(F)=C(F)F)c1ncc(Cl)s1 [Fluensulfone, fluensulfone, reference compound]
[1]; 2000 g ai/ha
  Mortality in % after 1d: 0%

## Bacillus amyloliquefaciens strain FZB 42
[1]; 2000 g ai/ha
  Mortality in % after 1d: 0%
[3]; 0.075 g ai/kg seed
  Emergence in % in comparison to untreated control: 158%
[3]; 0.15 g ai/kg seed
  Emergence in % in comparison to untreated control: 163%

## Bacillus subtilis strain GB03 [Bacillus subtilis strain GB 03]
[3]; 0.078 g ai/kg seed
  Emergence in % in comparison to untreated control: 158%

## Cydia pomonella granulosis virus (CpGV)
[1]; [6]
  Mortality in % after 1d: 0%

## Paecilomyces lilacinus strain 251
[1]; 5000 g ai/ha
  Mortality in % after 1d: 0%

## O=C(NCCc1ncc(C(F)(F)F)cc1Cl)c1ccccc1C(F)(F)F [Fluopyram, N-{2-[3-chloro-5-(trifluoromethyl)-2-pyridinyl]ethyl}-2-trifluoromethylbenzamide, reference compound]
[1]; [7]
  mortality at 500 g/ha: 0%
  mortality at 1000 g/ha: 0%
[4]
  mortality at 1000 g/ha: 0%
[3]; 0.5 g ai/kg seed
  Emergence in % in comparison to untreated control: 100%
[3]; 1 g ai/kg seed, untreated = 100
  Emergence in % in comparison to untreated control: 133%
[5]; Meloidogyne incognita, 504 h, read-out: Mortality in % after 21d
  mortality at 0.0005 ppm: 0%
[2]; 0.1 mg/seed grain, seed treatment
  Root weight in % in comparison to untreated control: 116.90%

## C/C=C(\C)C(=O)O[C@H]1C[C@@H](OC(C)=O)[C@@]2(C(=O)OC)CO[C@H]3[C@@H](O)[C@@](C)([C@]45O[C@@]4(C)[C@H]4C[C@@H]5O[C@@H]5OC=C[C@@]54O)[C@H]4[C@]1(CO[C@]4(O)C(=O)OC)[C@@H]32 [Azadirachtin, azadirachtin, reference compound]
[1]; [7]
  mortality at 100 g/ha: 0%

## Metarhizium anisopliae strain F52
[5]; 5 ppm, nematicidal effect from gall formation
  Mortality in % after 21d: 0%

## Metschnikowia fructicola
[1]; [6]
  Mortality in % after 1d: 0%
